The results in this text go back to ChEMBL document CHEMBL1201862, “PubChem BioAssay data set” (2004).

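Assay format: 96-well plates, 48-hour exposure. GI50: concentration for 50% inhibition of growth.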 The source made the active and inactive calls. Cut-off read from the data, not from the text of the source: active = GI50 up to about 1.1 µM and inactive = higher. Where only a bound is given, the exact number is not on record here.

Common to all, as to assay: inhibition of tumour cell growth, NCI panel, 48 h
Test [1] deals with Malme-3M.
The subject of test [2] is CCRF-CEM.
In test [3] the test system is SK-MEL-28.
Test [4] relates to 786-0.
Test [5] has as its system SR.
Test [6] concerns UACC-62.
The test system of test [7] is RXF 393.
Test [8] concerns COLO 205.
Test [9] relates to SNB-75.
Test [10] concerns A498.
Test [11] concerns SF-539.
In test [12] the test system is UACC-257.
Test [13] deals with HT-29.
The subject of test [14] is SN12C.
Test [15] has as its system MOLT-4.
Test [16] has as its system A549.
Test [17] deals with SW-620.
Test [18] deals with HCT-15.
Test [19] relates to CAKI-1.

Regarding `O=C1N(c2ccc(Cl)cc2)C(=O)C2(SC=NN2Cc2ccccc2)N1c1ccc(Cl)cc1` (stereo not drawn), the GI50 in test [1] was > 100 µM (inactive); in [2], 7.57 µM (inactive); in [3], > 100 µM (inactive); in test [4], > 100 µM (inactive); in test [5], 9.95 µM (inactive); in test [6], > 100 µM (inactive). In addition, the GI50 was 37.9 µM (inactive) in test [7]; > 10 µM (inactive) in test [8]; 64.7 µM (inactive) in [9]; > 100 µM (inactive) in [10]; 34.3 µM (inactive) in test [11]; > 100 µM (inactive) in test [12]. The GI50 in [13] is > 100 µM (inactive); in [14], > 100 µM (inactive); in test [15], 7.87 µM (inactive); in test [16] it was 96.4 µM (inactive); in test [17] it was > 100 µM (inactive).

As for `COC(=O)/C(=N\NC(=O)c1ccccc1O)C(C#N)c1ccc(Cl)cc1` (stereo not drawn), the GI50 in [1] is 26.1 µM (inactive); in test [2] it was 36.8 µM (inactive); in test [3], 28.3 µM (inactive); in test [18] it was 33 µM; in [4] it was 18 µM (inactive); in test [5] it was 37.3 µM (inactive). Moreover, the GI50 in [6] was 3.69 µM (inactive); in test [7], 2.04 µM (inactive); in test [8], > 100 µM (inactive); in [10], > 100 µM (inactive); in [11] it was 9.29 µM (inactive); in [12], 31.5 µM (inactive). Also, the GI50 in test [13] was 74.1 µM (inactive); in test [14], 45.5 µM (inactive); in test [15], 31.4 µM (inactive); in test [16], 3.85 µM (inactive); in test [17] it was 44.5 µM (inactive).

For the compound `Nc1c(C(=O)Nc2ccccc2O)[n+]([O-])c2ccccc2[n+]1[O-]`, the GI50 in test [1] is 83.9 µM (inactive); in [3] it was 79.4 µM (inactive); in test [18] it was 30.5 µM; in [4] it was > 100 µM (inactive); in test [5] it was 44.3 µM (inactive); in [8], 42.9 µM (inactive). Besides, the GI50 in [9] was 47.9 µM (inactive); in test [19] it was > 100 µM (inactive); in test [10] it was > 100 µM (inactive); in test [11], 32.3 µM (inactive); in test [12], 18.8 µM (inactive); in test [13], > 100 µM (inactive). For the same compound, the GI50 in test [14] is 63.2 µM (inactive); in [15], 45.8 µM (inactive); in [16], 36.1 µM (inactive); in [17], 21 µM (inactive).

`COC(=O)/C=C1\C(CO[Si](C)(C)C(C)(C)C)OC(n2ccc(=O)[nH]c2=O)C1O` (stereo not drawn): the GI50 in [2] is 6.27 µM (inactive); in [3], 6.25 µM (inactive); in test [18] it was 6.71 µM; in [4], 6.04 µM (inactive); in [5], 6.98 µM (inactive); in test [6] it was 13.7 µM (inactive). Besides, the GI50 was 9.84 µM (inactive) in [7]; 4.26 µM (inactive) in test [8]; 12.1 µM (inactive) in [9]; 22.6 µM (inactive) in test [19]; 17.5 µM (inactive) in test [10]; 15.5 µM (inactive) in test [11]. The GI50 in test [12] is 4.73 µM (inactive); in [13], 7.33 µM (inactive); in [14], 8.57 µM (inactive); in test [15], 8.49 µM (inactive); in test [16], 6.35 µM (inactive); in [17], 9.73 µM (inactive).
